Experimental data published in patent US20090246208A1, “METHODS FOR PREVENTING AND TREATING CANCER METASTASIS AND BONE LOSS ASSOCIATED WITH CANCER METASTASIS” (Novartis AG, priority 2006, published 2009).

How the values were obtained:
MDA-MB-231Luc cells = experiment: Combination study: intratibial MDA-MB-231Luc cells in Nu/Nu mice, Faxitron x-ray osteolysis scoring (FIGS. 15-17); type: in vivo
Experimental: Two weeks after intratibial inoculation of 6×10^5 MDA-MB-231Luc cells, Nu/Nu mice were treated with 5A1/5B4 (10 mg/kg once weekly), Zometa (0.03 mg/kg twice weekly) or both antibody and bisphosphonate. Bone lesions were monitored weekly by Faxitron analysis (x-ray technology), and at the end of the study, all animals were subjected to a final x-ray, and the images collected and distributed for scoring of the severity of lesions.
Mean osteolysis scores were calculated from 1) an average of scores from 3 separate volunteer scorers and 2) a group average (originally 10 animals/group).
Osteolysis score based on x-ray image in last day of study:
(§1) 1=Equivocal or minimal lesion with normal cortex architecture;
(§2) 2=Definite lytic lesion with minimal cortex/architecture disruption
(§3) 3=Large lesion(s) with cortex/Architecture disruption
(§4) 4=Gross destruction with no preserved architecture

[1] = tested on: osteoclasts differentiated from human bone marrow CD34+ cells; experiment: Differentiated osteoclast activity, OsteoLyse Assay Kit (Human Collagen) (FIGS. 18, 19); type: cell-based; conditions: added on day 15, supernatant sampled on day 17
Experimental: The human bone marrow CD34+ cells (Biowhittaker catalog number 2M-101 A, 3×10^5 cells/vial) were induced to differentiate into osteoclasts under the experimental conditions described here. On Day 1, CD34+ cells were thawed from one frozen vial into 10 ml of media (Alpha MEM with 10% FCS, 1×Pen Strep and 1×fungizone) The cells were washed once and re-suspended in 2 ml of media and plate into onto the OsteoLyse plate (OsteoLyse™ Assay Kit (Human Collagen), Cambrex) at 100 ul per well. On day 2, without removing the original media, add to each well 50 ul of 4×CSF-1 to 30 ng/ml final concentration and 50 ul of 4×RANKL (sRANKL, Chemicon catalog #GF091, 10 ug/package) to final concentration of 100 ng/ml. On day 7, add to each well 50 ul of 5×RANKL to final concentration of 100 ng/ml. On day 15, antibodies (either Chir-RX1 or control antibody) or Zometa were added at the indicated concentrations. On day 17, 10 ul of supernatant of the cell culture was sampled and mixed with 200 μl of Fluorophore Releasing Reagent in each well of the black 96-well assay plate (included in the OsteoLyse Assay Kit).

[2] = tested on: osteolytic damage caused by tumor growth at the bony site; experiment: Zometa dose-response study, osteolysis caused by tumor growth at the bony site (x-ray osteolysis score, FIG. 14); type: in vivo, mice
From the text: This Example establishes the dose-dependent, anti-resorptive effects of Zometa (zoledronate) in an animal model (FIG. 14). […] Osteolysis score based on x-ray image in last-day of study (FIG. 14):
as §1, §2, §3, §4

MCSF-R = conditions: cited from earlier work
[3] = tested on: M-CSF biological activity; conditions: cited from earlier work

Molecule	osteolytic damage caused by tumor growth at the bony site (mean osteolysis scores, FIG. 16) (MDA-MB-231Luc cells; 0.03 mg/kg Zometa, 10 mg/kg anti-MCSF antibody, combination regimen, last day of study)	treating osteolysis (single agents) (MDA-MB-231Luc cells; antibody 10 mg/kg once weekly, Zometa 0.03 mg/kg twice weekly, treatment from two weeks after inoculation)	severity of lesions in representative faxitron images (FIG. 17) (MDA-MB-231Luc cells; compared to untreated animals)	differentiated osteoclast activity [1]	dose response of anti-resorptive effect ([2]; mice treated with increasing concentrations of Zometa)	osteolytic damage caused by tumor growth at the bony site (osteolysis score based on x-ray image) ([2]; ≧0.03 mg/kg Zometa, last day of study, FIG. 14)	receptor-binding activity (MCSF-R)	biological activity, lower than native M-CSF [3]
O=P(O)(O)C(O)(Cn1ccnc1)P(=O)(O)O [Zometa, zoledronate]	inhibited the osteolytic damage	effective in treating osteolysis	relatively minor lesions	inhibits differentiated osteoclast activity in a dose-dependent manner	a dose response effect was observed	inhibited the osteolytic damage	–	–
M-CSF (Q20A, V78K): double mutant of M-CSF testing solvent accessible residues in the central portion of helices A and C (protein, UniProt P09603 33-554, looked up, variant Q20A V78K) Macrophage colony-stimulating …: EEVSEYCSHMIGSGHLQSLARLIDSQMETSCQITFEFVDQEQLKDPVCYLKKAFLLVQDIMEDTMRFRDNTPNAIAIKQLQELSLRLKSCFTKDYEEHDKACVRTFYETPLQLLEKVKNVFNETKNLLDKDWNIFSKNCNNSFAECSSQDVVTKPDCNCLYPKAIPSSDPASVSPHQPLAPSMAPVAGLTWEDSEGTEGSSLLPGEQPLHTVDPGSAKQRPPRSTCQSFEPPETPVVKDSTIGGSPQPRPSVGAFNPGMEDILDSAMGTNWVPEEASGEASEIPVPQGTELSPSRPGGGSMQTEPARPSNFLSASSPLPASAKGQQPADVTGTALPRVGPVRPTGQDWNHTPQKTDHPSALLRDPPEPGSPRISSLRPQGLSNPSTLSAQPQLSRSHSSGSVLPLGELEGRRSTRDRRSPAEPEGGPASEGAARPLPRFNSVPLTDTGHERQSEGSFSPQLQESVFHLLVPSVILVLLAVGGLLFYRWRRRSHQEPQRADSPLEQPEGSPLTQDDRQVELPV	–	–	–	–	–	–	correspondingly lower	8-10 fold
